Results as given in US20200341000A1, “METHOD OF SCREENING COMPOUNDS FOR TREATING CNS DISORDERS” (SAGE THERAPEUTICS, INC., priority 2017, published 2020).
Entries after “also recorded” stand apart in the source; their conditions may differ. Like-named read-outs stand apart in the source and are kept apart here.

Tests used:
[1] = test system: tonic current in dentate gyms granule cells (DGGCs); experiment: Acute (allosteric) modulation of tonic current in DGGCs of hippocampal slices; assay type: cell-based, mice; details: 100 nM, 10 min acute exposure, then 100 μM picrotoxin; mean±SEM
Description: Brain slices were prepared from 3- to 5-week-old male C57 mice. Mice were anesthetized with isoflurane, decapitated, and brains were rapidly removed and submerged in ice-cold cutting solution containing (mM): 126 NaCl, 2.5 KCl, 0.5 CaCl2, 2 MgCl2, 26 NaHCO3, 1.25 NaH2PO4, 10 glucose, 1.5 sodium pyruvate, and 3 kynurenic acid. Coronal 310 μm thick slices were cut with the vibratome VT1000S (Leica Microsystems, St Louis, Mo., USA). The slices were then transferred into incubation chamber filled with prewarmed (31-32° C.) oxygenated artificial cerebro-spinal fluid (ACSF) of the following composition (in mM): 126 NaCl, 2.5 KCl, 2 CaCl2, 2 MgCl2, 26 NaHCO3, 1.25 NaH2PO4, 10 glucose, 1.5 sodium pyruvate, 1 glutamine, 3 kynurenic acid and 0.005 GABA bubbled with 95% O2-5% CO2. Slices were allowed to recover at 32° C. for at least 1 hr before recording. Exogenous GABA was added in an attempt to standardize ambient GABA in the slice and provide an agonist source for newly inserted extrasynaptic GABAARs. […]
Whole-cell currents were recorded from the dentate gyms granule cells (DGGCs) in 310-μm-thick coronal hippocampal slices. […] A 5 min period for stabilization after obtaining the whole-cell recording conformation (holding potential of −60 mV) was allowed before currents were recorded using an Axopatch 200B amplifier (Molecular Devices), low-pass filtered at 2 kHz, digitized at 20 kHz (Digidata 1440A; Molecular Devices), and stored for offline analysis.
For tonic current measurements, an all-points histogram was plotted for a 10 s period before and during 100 μM picrotoxin application, once the response reached a plateau level. […] Series resistance and whole-cell capacitance were continually monitored and compensated throughout the course of the experiment. […] Spontaneous inhibitory post-synaptic currents (sIPSCs) were analyzed using the mini-analysis software (version 5.6.4; Synaptosoft, Decatur, Ga.). […] Only recordings with a minimum of 200 events fitting these criteria were analyzed. sIPSCs amplitude, and frequency from each experimental condition was pooled and expressed as mean±SEM. […]

α1β2γ2 GABAA receptors = biological target: T1, α1β2γ2 GABAA receptors (Homo sapiens, UniProt P14867+P18507+P47870); experiment: Whole-cell patch clamp, potentiation of GABA EC20 currents at recombinant synaptic-type receptors (LTK cells); assay type: cell-based; details: n = 3
T1 construct: expressed in transfected cells
T1 sequence (P14867 28-456): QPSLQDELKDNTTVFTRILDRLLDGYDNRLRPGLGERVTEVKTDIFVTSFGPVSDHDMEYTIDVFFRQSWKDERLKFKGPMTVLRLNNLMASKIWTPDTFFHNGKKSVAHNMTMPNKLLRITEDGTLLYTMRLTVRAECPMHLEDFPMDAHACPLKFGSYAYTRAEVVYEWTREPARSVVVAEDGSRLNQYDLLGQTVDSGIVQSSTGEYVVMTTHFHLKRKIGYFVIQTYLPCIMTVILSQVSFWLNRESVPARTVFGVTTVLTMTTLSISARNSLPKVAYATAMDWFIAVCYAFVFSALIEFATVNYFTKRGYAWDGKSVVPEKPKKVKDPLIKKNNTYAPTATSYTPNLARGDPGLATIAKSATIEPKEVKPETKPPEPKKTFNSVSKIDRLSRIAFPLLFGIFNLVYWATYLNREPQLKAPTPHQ
T1 sequence (P47870 25-512 limits assumed): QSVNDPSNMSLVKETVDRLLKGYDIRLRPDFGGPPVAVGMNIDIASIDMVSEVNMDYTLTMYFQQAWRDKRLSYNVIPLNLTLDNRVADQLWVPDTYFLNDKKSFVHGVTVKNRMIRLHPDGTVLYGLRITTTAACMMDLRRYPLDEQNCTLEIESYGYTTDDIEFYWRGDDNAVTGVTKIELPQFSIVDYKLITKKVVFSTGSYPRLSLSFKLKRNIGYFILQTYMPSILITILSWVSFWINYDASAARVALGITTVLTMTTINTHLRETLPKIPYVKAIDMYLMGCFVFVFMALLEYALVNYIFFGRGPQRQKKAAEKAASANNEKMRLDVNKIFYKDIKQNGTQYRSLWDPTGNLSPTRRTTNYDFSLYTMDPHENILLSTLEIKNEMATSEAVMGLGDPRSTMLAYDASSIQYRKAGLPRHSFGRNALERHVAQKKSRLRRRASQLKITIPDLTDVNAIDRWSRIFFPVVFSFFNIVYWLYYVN
T1 sequence (P18507 40-475): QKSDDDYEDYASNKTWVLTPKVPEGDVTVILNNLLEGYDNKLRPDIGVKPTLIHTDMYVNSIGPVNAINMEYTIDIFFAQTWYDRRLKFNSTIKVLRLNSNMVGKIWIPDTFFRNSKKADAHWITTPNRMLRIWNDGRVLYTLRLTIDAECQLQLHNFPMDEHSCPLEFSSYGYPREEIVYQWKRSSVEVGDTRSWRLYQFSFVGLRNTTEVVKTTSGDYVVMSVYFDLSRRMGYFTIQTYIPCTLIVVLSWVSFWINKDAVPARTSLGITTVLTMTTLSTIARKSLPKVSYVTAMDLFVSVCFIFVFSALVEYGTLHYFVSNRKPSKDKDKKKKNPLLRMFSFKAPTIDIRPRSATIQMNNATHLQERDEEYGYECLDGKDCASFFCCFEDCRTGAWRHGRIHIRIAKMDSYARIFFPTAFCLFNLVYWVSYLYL
Description: Cellular electrophysiology was used to measure the pharmacological properties of ALLO, ganaxolone and SGE-516 in heterologous cell systems. Compounds were tested for their ability to affect GABA mediated currents at a submaximal agonist dose (GABA EC20=2 μM).
LTK cells were stably transfected with the α1β2γ2 subunits of the GABA receptor and CHO cells are transiently transfected with the α4β3γ subunits via the Lipofecatamine method. Cells were passaged at a confluence of about 50-80% and then seeded onto 35 mm sterile culture dishes containing 2 ml culture complete medium without antibiotics or antimycotics. Cells were cultivated at a density that enabled the recording of single cells without visible connections to other cells.
Whole-cell currents were measured with HEKA EPC-10 amplifiers using PatchMaster software. Bath solution for all experiments contained (in mM): NaCl 137, KCl 4, CaCl2 1.8, MgCl2 1, HEPES 10, D-Glucose 10, pH 7.4 with NaOH. Intracellular (pipette) solution contained (in mM): KCl 130, MgCl2 1, Mg-ATP 5, HEPES 10, EGTA 5, pH 7.2 with KOH. During experiments, cells and solutions were maintained at room temperature (19° C.-30° C.). For manual patchclamp recordings, cell culture dishes were placed on the dish holder of the microscope and continuously perfused (1 ml/min) with bath solution. After formation of a Gigaohm seal between the patch electrode and the cell (pipette resistance range: 2.5 MΩ-6.0MΩ; seal resistance range: >1 GΩ) the cell membrane across the pipette tip was ruptured to assure electrical access to the cell interior (whole-cell patch configuration).
Cells were voltage-clamped at a holding potential of −80 mV. GABAA receptors were activated by 2 μM GABA and compounds were sequentially applied at increasing concentrations for 30 s prior to a 2 s application of GABA. GABA and compounds were applied to cells via the Dynaflow perfusion system (Cellectricon, Sweden). Test compounds were dissolved in DMSO to form 10 mM stock solution and serially diluted to 0.01, 0.1, 1, and 10 μM in bath solution. […] All concentrations of test compound were tested on each cell. The relative percentage potentiation was defined as the peak amplitude in response to GABA EC20 in the presence of test compound divided by the peak amplitude in response to GABA EC20 alone, multiplied by 100.
ALLO and ganaxolone are known PAMs of both synaptic and extrasynaptic GABAAR-mediated currents. […] The α1β2γ2 or α4β3δ subunit combinations were chosen as representatives of typical synaptic and extrasynaptic GABAA receptors respectively.

[2] = test system: tonic current in dentate gyms granule cells (DGGCs); experiment: Sustained (metabotropic) enhancement of tonic current in DGGCs after 15 min exposure and washout; assay type: cell-based, mice; details: for tonic current after exposure and washout: 1 μM, vehicle 43.9±5.7 pA; for change of tonic current after exposure to different concentrations: maximal effects at 1 μM; for tonic current versus vehicle with PKC inhibitor GFX: GFX 50 μM 15 min, then co-exposure with compound 15 min, washout
Description: Brain slices were prepared from 3- to 5-week-old male C57 mice. Mice were anesthetized with isoflurane, decapitated, and brains were rapidly removed and submerged in ice-cold cutting solution containing (mM): 126 NaCl, 2.5 KCl, 0.5 CaCl2, 2 MgCl2, 26 NaHCO3, 1.25 NaH2PO4, 10 glucose, 1.5 sodium pyruvate, and 3 kynurenic acid. Coronal 310 μm thick slices were cut with the vibratome VT1000S (Leica Microsystems, St Louis, Mo., USA). The slices were then transferred into incubation chamber filled with prewarmed (31-32° C.) oxygenated artificial cerebro-spinal fluid (ACSF) of the following composition (in mM): 126 NaCl, 2.5 KCl, 2 CaCl2, 2 MgCl2, 26 NaHCO3, 1.25 NaH2PO4, 10 glucose, 1.5 sodium pyruvate, 1 glutamine, 3 kynurenic acid and 0.005 GABA bubbled with 95% O2-5% CO2. Slices were allowed to recover at 32° C. for at least 1 hr before recording. Exogenous GABA was added in an attempt to standardize ambient GABA in the slice and provide an agonist source for newly inserted extrasynaptic GABAARs.
After recovery, a single slice was transferred to a submerged, dual perfusion recording chamber (Warner Instruments, Hamden, Conn., USA) on the stage of an upright microscope (Nikon FN-1) with a 40× water immersion objective equipped with DIC/IR optics. Slices were maintained at 32° C. and gravity-superfused with ACSF solution throughout experimentation and perfused at rate of 2 ml/min with oxygenated (O2/CO2 95/5%) ACSF.
Whole-cell currents were recorded from the dentate gyms granule cells (DGGCs) in 310-μm-thick coronal hippocampal slices. Patch pipettes (5-7MΩ) were pulled from borosilicate glass (World Precision Instruments) and filled with intracellular solution of the composition (in mM) as follows: 140 CsCl, 1 MgCl2, 0.1 EGTA, 10 HEPES, 2 Mg-ATP, 4 NaCl and 0.3 Na-GTP (pH=7.2 with CsOH). A 5 min period for stabilization after obtaining the whole-cell recording conformation (holding potential of −60 mV) was allowed before currents were recorded using an Axopatch 200B amplifier (Molecular Devices), low-pass filtered at 2 kHz, digitized at 20 kHz (Digidata 1440A; Molecular Devices), and stored for offline analysis.
For tonic current measurements, an all-points histogram was plotted for a 10 s period before and during 100 μM picrotoxin application, once the response reached a plateau level. Recordings with unstable baselines were discarded. Fitting the histogram with a Gaussian distribution gave the mean baseline current amplitude and the difference between the amplitudes before and during picrotoxin was considered to be the tonic current. The negative section of the all-points histogram which corresponds to the inward IPSCs was not fitted with a Gaussian distribution (Kretschmannova et al., 2013; Nusser and Mody, 2002). Series resistance and whole-cell capacitance were continually monitored and compensated throughout the course of the experiment. Recordings were eliminated from data analysis if series resistance increased by >20%. Spontaneous inhibitory post-synaptic currents (sIPSCs) were analyzed using the mini-analysis software (version 5.6.4; Synaptosoft, Decatur, Ga.). Minimum threshold detection was set to 3 times the value of baseline noise signal. To assess sIPSC kinetics, the recording trace was visually inspected and only events with a stable baseline, sharp rising phase, and single peak were used to negate artifacts due to event summation. Only recordings with a minimum of 200 events fitting these criteria were analyzed. sIPSCs amplitude, and frequency from each experimental condition was pooled and expressed as mean±SEM. To measure sIPSC decay, 100 consecutive events were averaged and the decay was fitted to a double exponential and the weighted decay constant (tw) was determined. Statistical analysis was performed by using Student t-test (paired and unpaired where appropriate), where p<0.05 is considered significant.

[3] = relative percentage potentiation of GABA EC20 peak current
[4] = 15 min incubation, 30-60 min wash

| SMILES | tonic current during acute exposure [1] [pA] | EC50 (α1β2γ2 GABAA receptors; EC50, potentiation of GABA current, α1β2γ2, GABA EC20 (2 μM)) [nM] | Emax (α1β2γ2 GABAA receptors; LTK, relative percentage potentiation of GABA EC20 peak current, read-out: Emax ± S.E.M., α1β2γ2) [%] | Emax ± S.E.M., α1β2γ2 (α1β2γ2 GABAA receptors; [3]) [%] | increase in tonic current in the absence or presence of strychnine ([2]; 100 nM ALLO 15 min, strychnine 100 nM) | change of tonic current versus vehicle ([2]; 100 nM, 15 min incubation, 30-60 min wash) | tonic current after exposure and washout [2, 4] [pA] | change of tonic current after exposure to different concentrations [2, 4] | tonic current versus vehicle with PKC inhibitor GFX [2] | pEC50 ± S.E.M., α1β2γ2 (α1β2γ2 GABAA receptors; GABA EC20 (2 μM)) | EC50 (α1β2γ2 GABAA receptors; GABA EC20 (2 μM), read-out: EC50, potentiation of GABA current, α1β2γ2) [nM] | tonic current in DGGCs after incubation and extensive washout ([2]; 100 nM, WT slices) |
| --- | --- | --- | --- | --- | --- | --- | --- | --- | --- | --- | --- | --- |
| CC(=O)[C@H]1CC[C@H]2[C@@H]3CC[C@H]4C[C@H](O)CC[C@]4(C)[C@H]3CC[C@]12C [ALLO, Allopregnanolone] | 58.3±13.0 | 115 | 229 | 229 ± 19 | no difference | significant increase | 95.8±10.8 | concentration-dependent increase; also recorded: significantly enhanced | no significant difference; also recorded: No change | – | – | – |
| C[C@@]1(O)CC[C@H]2[C@H](CC[C@@H]3[C@@H]2CC[C@]2(C)[C@@H](C(=O)Cn4nccn4)CC[C@@H]32)C1 [SGE-516] | 49.2±8.9 | – | – | 219 | – | – | 123.0±22.2 | concentration-dependent increase; also recorded: significantly enhanced | no significant difference; also recorded: No change | 7.2 ± 0.3 | 61 | significant increased |
